Reference: patent US9403823B2, “Protein kinase inhibitors” (ORIBASE PHARMA, priority 2012, dated 2016)
Where two headings read alike, the source gives them in different places.

How the values were obtained:
HepG2 cell line = test: In vitro cell proliferation assay (MTT), HepG2; assay type: cell-based; conditions: Homo sapiens, read-out: EC50, anti-proliferative activity
Method: (§1) 2) In Vitro Cell Proliferation Assays (Table 22 to Table 35)
(§2) Cancer cell lines (5×10^3 cells per well) or HUVEC (1×10^4 cells per well) or HRMEC (1×10^4 cells per well) were distributed in 96-well plates and incubating in duplicate with escalating concentrations (10 nM to 3 μM) of compounds for 72 hr. Cell proliferation was measured using MTT (3[4,5-dimethylthiazol-2-yl]-2,5-diphenyltetrazolium bromide).

HuCCT1 cell line = test: In vitro cell proliferation assay (MTT), HuCCT1; assay type: cell-based; conditions: Homo sapiens, HuCCT-1; HuCCT1, 72 hr, MTT; read-out: EC50, anti-proliferative activity
Method: as §1, §2

BRAF = target: T1, BRAF (Homo sapiens, UniProt P15056); test: In vitro kinase assay (Z'-LYTE), BRAF; assay type: biochemical; conditions: read-out: % of inhibition of the kinase compared to the control
T1 construct: purchased Invitrogen
T1 sequence (P15056 whole entry): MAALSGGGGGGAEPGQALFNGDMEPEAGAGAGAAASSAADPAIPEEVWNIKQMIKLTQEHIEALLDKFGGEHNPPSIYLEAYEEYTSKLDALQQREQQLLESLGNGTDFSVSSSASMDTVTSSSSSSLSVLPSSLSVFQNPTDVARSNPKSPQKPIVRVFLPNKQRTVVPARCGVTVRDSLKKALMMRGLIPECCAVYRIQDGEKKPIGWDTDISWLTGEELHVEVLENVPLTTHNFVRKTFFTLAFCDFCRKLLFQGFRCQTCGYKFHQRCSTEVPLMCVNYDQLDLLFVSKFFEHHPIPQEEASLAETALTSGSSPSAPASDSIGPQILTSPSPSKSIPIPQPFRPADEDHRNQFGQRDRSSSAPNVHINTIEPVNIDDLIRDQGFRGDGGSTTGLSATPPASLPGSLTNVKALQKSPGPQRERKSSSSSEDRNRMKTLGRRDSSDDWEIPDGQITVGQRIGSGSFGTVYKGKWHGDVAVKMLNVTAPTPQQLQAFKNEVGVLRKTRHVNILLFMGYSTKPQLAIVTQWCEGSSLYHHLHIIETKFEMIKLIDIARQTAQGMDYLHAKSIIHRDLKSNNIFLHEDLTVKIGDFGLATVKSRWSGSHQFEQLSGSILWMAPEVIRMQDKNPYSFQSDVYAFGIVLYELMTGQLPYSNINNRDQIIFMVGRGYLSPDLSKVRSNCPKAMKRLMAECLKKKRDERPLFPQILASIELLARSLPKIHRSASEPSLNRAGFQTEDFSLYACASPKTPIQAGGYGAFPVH
Method: (§3) 1) In Vitro Kinase Assays (Table 10 to Table 21)
(§4) The inhibitory activity of the compounds on several kinases including BRAF, EGFR (ErbB1), EGFR (ErbB1) T790M L858R, FGFR2, KDR (VEGFR2), PDGFRA (PDGFR alpha), SRC and other was evaluated by Invitrogen using the Z′-LYTE® technology. Briefly, the Z′-LYTE® biochemical assay employs a fluorescence-based, coupled-enzyme format and is based on the differential sensitivity of phosphorylated and non-phosphorylated peptides to proteolytic cleavage. The peptide substrate is labeled with two fluorophores—one at each end—that make up a FRET pair. A ratiometric method, which calculates the ratio (the Emission Ratio) of donor emission to acceptor emission after excitation of the donor fluorophore at 400 nm, is used to quantitate reaction progress.
(§5) The compounds are screened in 1% DMSO (final) in the well. For 10 point titrations, 3-fold serial dilutions are conducted from the starting concentration. All Peptide/Kinase Mixtures are diluted to a 2× working concentration in the appropriate Kinase Buffer. All ATP Solutions are diluted to a 4× working concentration in Kinase Buffer (50 mM HEPES pH 7.5, 0.01% BRIJ-35, 10 mM MgCl2, 1 mM EGTA). ATP Km apparent is previously determined using a Z′-LYTE® assay.
(§6) Each compound was incubated at a concentration of 100 nM (excepted to test the activity against ABL and ABL T315I for which the compounds were incubated at a concentration of 10 μM) and the tables 10 to 21 summarize the results obtained showing the inhibitory power of a compound.

EGFR (ErbB1) = target: T2, EGFR (ErbB1) (Homo sapiens, UniProt P00533); test: In vitro kinase assay (Z'-LYTE), EGFR (ErbB1); assay type: biochemical; conditions: read-out: % of inhibition of the kinase compared to the control
T2 construct: purchased Invitrogen
T2 sequence (P00533 25-1210): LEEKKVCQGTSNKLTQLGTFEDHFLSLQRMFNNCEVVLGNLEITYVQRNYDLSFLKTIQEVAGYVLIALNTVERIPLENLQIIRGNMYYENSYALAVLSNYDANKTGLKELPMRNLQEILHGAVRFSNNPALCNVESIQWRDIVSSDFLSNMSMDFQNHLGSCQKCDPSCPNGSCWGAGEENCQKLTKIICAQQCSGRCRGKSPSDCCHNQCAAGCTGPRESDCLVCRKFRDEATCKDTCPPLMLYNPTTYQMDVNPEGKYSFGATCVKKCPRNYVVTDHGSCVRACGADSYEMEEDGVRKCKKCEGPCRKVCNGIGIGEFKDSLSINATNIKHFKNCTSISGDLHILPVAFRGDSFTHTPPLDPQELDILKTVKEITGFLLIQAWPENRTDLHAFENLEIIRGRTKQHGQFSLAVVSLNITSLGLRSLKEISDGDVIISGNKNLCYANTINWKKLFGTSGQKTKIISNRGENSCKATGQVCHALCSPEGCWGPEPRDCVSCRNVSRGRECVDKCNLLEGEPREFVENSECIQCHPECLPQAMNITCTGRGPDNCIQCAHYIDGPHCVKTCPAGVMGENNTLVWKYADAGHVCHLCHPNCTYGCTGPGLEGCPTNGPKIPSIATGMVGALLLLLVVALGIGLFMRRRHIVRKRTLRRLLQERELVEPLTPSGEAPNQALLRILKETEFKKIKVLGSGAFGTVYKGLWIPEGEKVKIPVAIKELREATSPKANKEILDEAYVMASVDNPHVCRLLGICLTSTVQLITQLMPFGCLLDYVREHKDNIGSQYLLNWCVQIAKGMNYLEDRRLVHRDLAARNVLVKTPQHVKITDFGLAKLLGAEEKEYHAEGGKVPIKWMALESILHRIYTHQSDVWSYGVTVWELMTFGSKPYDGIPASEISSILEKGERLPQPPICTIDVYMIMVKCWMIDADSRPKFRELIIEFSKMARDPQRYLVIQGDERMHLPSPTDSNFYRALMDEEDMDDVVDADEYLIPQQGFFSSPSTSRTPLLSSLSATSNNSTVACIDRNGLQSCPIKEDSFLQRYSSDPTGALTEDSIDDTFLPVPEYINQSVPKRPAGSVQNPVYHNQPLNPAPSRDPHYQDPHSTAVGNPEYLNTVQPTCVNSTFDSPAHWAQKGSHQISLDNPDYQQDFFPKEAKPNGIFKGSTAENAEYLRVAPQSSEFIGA
Method: as §3, §4, §5, §6

EGFR (ErbB1) T790M L858R = target: T3, EGFR (ErbB1) T790M L858R (Homo sapiens, UniProt P00533, L858R/T790M); test: In vitro kinase assay (Z'-LYTE), EGFR (ErbB1) T790M L858R; assay type: biochemical; conditions: read-out: % of inhibition of the kinase compared to the control
T3 construct: purchased Invitrogen
Method: as §3, §4, §5, §6

FGFR2 = target: T4, FGFR2 (Homo sapiens, UniProt P21802); test: In vitro kinase assay (Z'-LYTE), FGFR2; assay type: biochemical; conditions: read-out: % of inhibition of the kinase compared to the control
T4 construct: purchased Invitrogen
Method: as §3, §4, §5, §6

KDR (VEGFR2) = target: T5, KDR (VEGFR2) (Homo sapiens, UniProt P35968); test: In vitro kinase assay (Z'-LYTE), KDR (VEGFR2); assay type: biochemical; conditions: read-out: % of inhibition of the kinase compared to the control
T5 construct: purchased Invitrogen
T5 sequence (P35968 20-1356): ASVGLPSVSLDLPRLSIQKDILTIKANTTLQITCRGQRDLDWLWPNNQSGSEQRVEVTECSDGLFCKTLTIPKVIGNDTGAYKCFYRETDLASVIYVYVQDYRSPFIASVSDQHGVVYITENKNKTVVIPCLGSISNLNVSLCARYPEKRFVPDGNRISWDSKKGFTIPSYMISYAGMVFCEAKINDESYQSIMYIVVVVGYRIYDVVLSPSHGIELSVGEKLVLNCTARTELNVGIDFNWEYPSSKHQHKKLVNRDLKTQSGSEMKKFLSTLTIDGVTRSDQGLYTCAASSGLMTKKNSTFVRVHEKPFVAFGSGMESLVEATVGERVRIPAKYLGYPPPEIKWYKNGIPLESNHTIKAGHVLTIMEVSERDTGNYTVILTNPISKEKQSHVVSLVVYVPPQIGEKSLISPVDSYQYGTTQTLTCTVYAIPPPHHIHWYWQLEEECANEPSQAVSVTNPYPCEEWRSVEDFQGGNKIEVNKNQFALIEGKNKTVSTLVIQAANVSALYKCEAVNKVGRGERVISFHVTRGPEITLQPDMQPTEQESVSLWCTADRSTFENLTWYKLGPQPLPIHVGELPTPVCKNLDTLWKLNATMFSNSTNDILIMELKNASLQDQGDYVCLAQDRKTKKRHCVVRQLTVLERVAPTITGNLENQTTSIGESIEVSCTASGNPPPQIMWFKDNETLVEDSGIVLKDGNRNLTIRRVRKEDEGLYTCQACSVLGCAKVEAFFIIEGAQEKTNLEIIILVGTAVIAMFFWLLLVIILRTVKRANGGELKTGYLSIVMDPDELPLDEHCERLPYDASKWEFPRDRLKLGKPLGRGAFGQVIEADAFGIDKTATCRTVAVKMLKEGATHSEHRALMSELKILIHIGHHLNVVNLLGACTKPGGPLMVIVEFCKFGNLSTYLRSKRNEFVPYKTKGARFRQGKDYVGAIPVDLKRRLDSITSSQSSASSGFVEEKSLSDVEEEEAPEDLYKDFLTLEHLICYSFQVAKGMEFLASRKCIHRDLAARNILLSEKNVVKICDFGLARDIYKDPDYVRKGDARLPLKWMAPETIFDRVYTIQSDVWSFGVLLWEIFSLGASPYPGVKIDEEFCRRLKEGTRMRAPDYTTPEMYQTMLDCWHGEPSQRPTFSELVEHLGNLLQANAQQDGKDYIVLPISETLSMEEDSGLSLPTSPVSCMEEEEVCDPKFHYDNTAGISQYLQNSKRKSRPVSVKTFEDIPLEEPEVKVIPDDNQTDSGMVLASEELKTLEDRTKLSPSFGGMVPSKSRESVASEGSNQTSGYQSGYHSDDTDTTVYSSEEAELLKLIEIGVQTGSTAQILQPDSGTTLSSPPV
Method: as §3, §4, §5, §6

PDGFRA (PDGFR alpha) = target: T6, PDGFRA (PDGFR alpha) (Homo sapiens, UniProt P16234); test: In vitro kinase assay (Z'-LYTE), PDGFRA; assay type: biochemical; conditions: read-out: % of inhibition of the kinase compared to the control
T6 construct: purchased Invitrogen
T6 sequence (P16234 24-1089): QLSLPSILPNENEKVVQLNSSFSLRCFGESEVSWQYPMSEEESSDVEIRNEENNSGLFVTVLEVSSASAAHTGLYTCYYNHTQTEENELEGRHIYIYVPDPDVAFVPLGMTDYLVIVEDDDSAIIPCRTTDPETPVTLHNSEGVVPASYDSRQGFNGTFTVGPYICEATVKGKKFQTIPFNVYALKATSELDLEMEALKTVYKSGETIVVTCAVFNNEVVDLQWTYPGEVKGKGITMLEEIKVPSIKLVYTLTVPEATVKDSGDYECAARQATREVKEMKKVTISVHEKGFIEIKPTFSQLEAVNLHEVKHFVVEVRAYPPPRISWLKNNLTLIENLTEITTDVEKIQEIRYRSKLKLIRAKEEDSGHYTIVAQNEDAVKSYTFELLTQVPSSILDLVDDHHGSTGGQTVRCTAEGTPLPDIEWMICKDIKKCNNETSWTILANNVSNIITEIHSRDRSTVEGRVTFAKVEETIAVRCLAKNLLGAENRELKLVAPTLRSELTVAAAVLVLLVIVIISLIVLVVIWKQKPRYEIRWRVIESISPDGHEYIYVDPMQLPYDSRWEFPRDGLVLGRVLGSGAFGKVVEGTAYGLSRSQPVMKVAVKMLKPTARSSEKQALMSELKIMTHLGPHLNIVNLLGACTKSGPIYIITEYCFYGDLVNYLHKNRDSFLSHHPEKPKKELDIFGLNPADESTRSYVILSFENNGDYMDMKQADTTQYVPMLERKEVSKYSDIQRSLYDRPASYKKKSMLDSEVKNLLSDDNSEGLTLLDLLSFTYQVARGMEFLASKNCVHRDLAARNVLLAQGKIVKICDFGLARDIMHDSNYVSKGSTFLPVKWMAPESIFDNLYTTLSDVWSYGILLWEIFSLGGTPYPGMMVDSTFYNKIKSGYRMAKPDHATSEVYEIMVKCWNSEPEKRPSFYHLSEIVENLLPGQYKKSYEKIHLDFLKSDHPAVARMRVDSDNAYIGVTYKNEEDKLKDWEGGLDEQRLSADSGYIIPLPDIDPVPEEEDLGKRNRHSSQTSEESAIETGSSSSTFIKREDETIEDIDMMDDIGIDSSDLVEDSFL
Method: as §3, §4, §5, §6

SRC = target: T7, SRC (Homo sapiens, UniProt P12931); test: In vitro kinase assay (Z'-LYTE), SRC; assay type: biochemical; conditions: read-out: % of inhibition of the kinase compared to the control
T7 construct: purchased Invitrogen
T7 sequence (P12931 whole entry): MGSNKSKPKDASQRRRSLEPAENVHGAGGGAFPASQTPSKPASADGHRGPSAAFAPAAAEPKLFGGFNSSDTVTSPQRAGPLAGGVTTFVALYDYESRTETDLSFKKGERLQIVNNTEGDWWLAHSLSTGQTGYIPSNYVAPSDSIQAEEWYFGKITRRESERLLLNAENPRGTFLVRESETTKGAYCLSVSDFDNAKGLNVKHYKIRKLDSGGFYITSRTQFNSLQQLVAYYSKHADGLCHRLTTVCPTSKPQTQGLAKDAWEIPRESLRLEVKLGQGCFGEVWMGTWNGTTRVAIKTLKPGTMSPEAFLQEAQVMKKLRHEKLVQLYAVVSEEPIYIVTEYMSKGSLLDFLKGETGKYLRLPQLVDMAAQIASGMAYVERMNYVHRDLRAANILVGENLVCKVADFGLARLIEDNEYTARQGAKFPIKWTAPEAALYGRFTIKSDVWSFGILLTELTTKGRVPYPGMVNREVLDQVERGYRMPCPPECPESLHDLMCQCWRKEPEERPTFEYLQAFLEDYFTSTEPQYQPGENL
Method: as §3, §4, §5, §6

HuH7 cell line = test: In vitro cell proliferation assay (MTT), HuH7; assay type: cell-based; conditions: Homo sapiens, Huh-7; HuH7, 72 hr, MTT; read-out: EC50, anti-proliferative activity
Method: as §1, §2

A549 cell line = test: In vitro cell proliferation assay (MTT), A549; assay type: cell-based; conditions: Homo sapiens, read-out: EC50, anti-proliferative activity
Method: as §1, §2

HT29 cell line = test: In vitro cell proliferation assay (MTT), HT29; assay type: cell-based; conditions: Homo sapiens, HT-29; HT29, 72 hr, MTT; read-out: EC50, anti-proliferative activity
Method: as §1, §2

H1975 cell line = test: In vitro cell proliferation assay (MTT), H1975; assay type: cell-based; conditions: Homo sapiens, NCI-H1975; H1975, 72 hr, MTT; read-out: EC50, anti-proliferative activity
Method: as §1, §2

HUVEC = test: In vitro cell proliferation assay (MTT), HUVEC; assay type: cell-based; conditions: Homo sapiens, read-out: EC50, anti-proliferative activity
Method: as §1, §2

MDA-MB-231 cell line = test: In vitro cell proliferation assay (MTT), MDA-MB-231; assay type: cell-based; conditions: Homo sapiens, MDA-MB-231, 72 h; read-out: EC50, anti-proliferative activity
Method: as §1, §2

HeLa cell line = test: In vitro cell proliferation assay (MTT), HeLa; assay type: cell-based; conditions: Homo sapiens, read-out: EC50, anti-proliferative activity
Method: as §1, §2

| Structure (SMILES) | EC50 (HepG2 cell line; HepG2, 72 hr, MTT) [nM] | EC50 (HuCCT1 cell line) [nM] | inhibition at 0.1 µM (BRAF) [%] | inhibition at 0.1 µM (EGFR (ErbB1)) [%] | inhibition at 0.1 µM (EGFR (ErbB1) T790M L858R) [%] | inhibition at 0.1 µM (FGFR2) [%] | inhibition at 0.1 µM (KDR (VEGFR2)) [%] | inhibition at 0.1 µM (PDGFRA (PDGFR alpha)) [%] | inhibition at 0.1 µM (SRC) [%] | EC50 (HuH7 cell line) [nM] | EC50 (A549 cell line; A549, 72 hr, MTT) [nM] | EC50 (HT29 cell line) [nM] | EC50 (H1975 cell line) [nM] | EC50 (HUVEC; 72 hr, MTT) [nM] | EC50 (HepG2 cell line; HepG2, 72 h) [nM] | EC50 (MDA-MB-231 cell line) [nM] | EC50 (HeLa cell line; 72 hr, MTT) [nM] | EC50 (A549 cell line; A549, 72 h) [nM] | EC50 (HUVEC; 72 h) [nM] | EC50 (HeLa cell line; 72 h) [nM] |
| --- | --- | --- | --- | --- | --- | --- | --- | --- | --- | --- | --- | --- | --- | --- | --- | --- | --- | --- | --- | --- |
| Cc1nc(Nc2ncc(C(=O)Nc3c(C)cccc3Cl)s2)cc(N2CCN(CCO)CC2)n1 [Dasatinib, reference compound] | ≥ 1000 | ≥ 1000 |  |  |  |  |  |  |  |  |  |  |  |  |  |  |  |  |  |  |
| CC(=O)c1cc2cc(NCc3cc(NC(=O)c4cc(-n5cnc(C)c5)cc(C(F)(F)F)c4)ccc3C)cnc2[nH]1 [OR0719, N-{3-[(2-Acetyl-1H-pyrrolo[2,3-b]pyridin-5-ylamino)-methyl]-4-methyl-phenyl}-3-(4-methyl-imidazol-1-yl)-5-trifluoromethyl-benzamide] |  |  | ≥ 50 | < 50 | < 50 | < 50 | < 50 | < 50 | ≥ 50 |  |  |  |  |  |  |  |  |  |  |  |
| CC(=O)c1cc2cc(NCc3cc(NC(=O)c4ccc(CN5CCN(C)CC5)cc4)ccc3C)cnc2[nH]1 [OR0734, N-{3-[(2-Acetyl-1H-pyrrolo[2,3-b]pyridin-5-ylamino)-methyl]-4-methyl-phenyl}-4-(4-methyl-piperazin-1-ylmethyl)-benzamide] |  |  | < 50 | ≥ 50 |  | < 50 | ≥ 50 | ≥ 50 | ≥ 50 | ≥ 1000 |  |  |  |  |  |  |  |  |  |  |
| CC(=O)c1cc2cc(NC(=O)c3cc(NC(=O)c4ccc(CN5CCN(C)CC5)cc4)ccc3C)cnc2[nH]1 [OR0780, N-(2-Acetyl-1H-pyrrolo[2,3-b]pyridin-5-yl)-2-methyl-5-[4-(4-methyl-piperazin-1-ylmethyl)-benzoylamino]-benzamide] |  |  | < 50 | < 50 | < 50 | < 50 | < 50 | ≥ 50 | < 50 |  | ≥ 1000 | ≥ 1000 | ≥ 1000 | ≥ 1000 |  |  |  |  |  |  |
| CC(=O)c1cc2cc(NCc3cc(NC(=O)c4ccc(CN5CCN(C)CC5)c(F)c4)ccc3C)cnc2[nH]1 [OR0885, N-{3-[(2-Acetyl-1H-pyrrolo[2,3-b]pyridin-5-ylamino)-methyl]-4-methyl-phenyl}-3-fluoro-4-(4-methyl-piperazin-1-ylmethyl)-benzamide] |  |  | ≥ 50 | ≥ 50 |  | ≥ 50 | ≥ 50 |  |  |  | ≥ 1000 |  |  | ≥ 1000 | 100 to 1000 | 100 to 1000 | ≥ 1000 |  |  |  |
| CC(=O)c1cc2cc(NCc3cccc(NC(=O)c4ccc(CN5CCN(C)CC5)c(C(F)(F)F)c4)c3)cnc2[nH]1 [OR0926, N-{3-[(2-Acetyl-1H-pyrrolo[2,3-b]pyridin-5-ylamino)-methyl]-phenyl}-4-(4-methyl-piperazin-1-ylmethyl)-3-trifluoromethyl-benzamide] |  |  | < 50 | ≥ 50 |  | ≥ 50 | ≥ 50 |  |  |  |  |  |  |  | ≤ 100 | ≤ 100 |  | 100 to 1000 | 100 to 1000 | 100 to 1000 |
| CC(=O)c1cc2cc(NCc3cc(NC(=O)c4ccc(CN5CCN(C)CC5)c(C(F)(F)F)c4)ccc3F)cnc2[nH]1 [OR0972, N-{3-[(2-Acetyl-1H-pyrrolo[2,3-b]pyridin-5-ylamino)-methyl]-4-fluoro-phenyl}-4-(4-methyl-piperazin-1-ylmethyl)-3-trifluoromethyl-benzamide] |  |  | < 50 | ≥ 50 |  | ≥ 50 | ≥ 50 |  |  |  |  |  |  |  | ≤ 100 | ≤ 100 |  | 100 to 1000 | 100 to 1000 | 100 to 1000 |
